Measured values from ChEMBL document CHEMBL3885881, “DrugMatrix”.

Organism: Rattus norvegicus
Type: toxicity, organism-based, Sprague-Dawley
Settings: in vivo, po, route oral GAVAGE, vehicle 100 % SALINE; for ABSOLUTE EOSINOPHIL / ABSOLUTE LYMPHOCYTE / ABSOLUTE MONOCYTE / ABSOLUTE SEGMENTED NEUTROPHIL / BASOPHIL / EOSINOPHIL / ERYTHROCYTE COUNT / HEMATOCRIT / HEMOGLOBIN / LEUKOCYTE COUNT / LYMPHOCYTE / MEAN CORPUSCULAR HEMOGLOBIN / MEAN CORPUSCULAR HEMOGLOBIN CONCENTRATION / MEAN CORPUSCULAR VOLUME / MONOCYTE / NEUTROPHIL / NUCLEATED RED BLOOD CELLS / PLATELET COUNT: tissue Blood; for ALANINE AMINOTRANSFERASE / ALBUMIN / ALKALINE PHOSPHATASE / ASPARTATE AMINOTRANSFERASE / BLOOD UREA NITROGEN / CARBON DIOXIDE / CHLORIDE / CHOLESTEROL / CREATINE PHOSPHOKINASE / CREATININE / GLUCOSE / LACTATE DEHYDROGENASE / LIPASE / PHOSPHORUS / POTASSIUM / SODIUM / TOTAL BILIRUBIN / TOTAL PROTEIN / URIC ACID: tissue Plasma
[1] = 10 mg/kg, 24 h, dose level Low, time 1 day
[2] = 30 mg/kg, 6 h, dose level High, time 0.25 day
[3] = 30 mg/kg, 24 h, dose level High, time 1 day

Description: DrugMatrix - Regimen: Single

O=[As][O-].[Na+] [SODIUM ARSENITE]
ABSOLUTE EOSINOPHIL [1]: 15.17 CELLS/uL
ABSOLUTE LYMPHOCYTE [1]: 9656.17 CELLS/uL
ABSOLUTE MONOCYTE [1]: 190.33 CELLS/uL
ABSOLUTE SEGMENTED NEUTROPHIL [1]: 505 CELLS/uL
BASOPHIL [1]: 0%
EOSINOPHIL [1]: 0.17%
ERYTHROCYTE COUNT [1]: 4.96 x10E6/uL
HEMATOCRIT [1]: 32.55%
HEMOGLOBIN [1]: 12.85 G/DL
LEUKOCYTE COUNT [1]: 10.37 x10E3/uL
LYMPHOCYTE [1]: 93%
MEAN CORPUSCULAR HEMOGLOBIN [1]: 25.92 pg
MEAN CORPUSCULAR HEMOGLOBIN CONCENTRATION [1]: 39.47 G/DL
MEAN CORPUSCULAR VOLUME [1]: 65.67 fL
MONOCYTE [1]: 1.83%
NEUTROPHIL [1]: 5%
NUCLEATED RED BLOOD CELLS [1]: 0 /100WBC
PLATELET COUNT [1]: 1030.17 x10E3/uL
ALANINE AMINOTRANSFERASE [1]: 32.83 u/L
ALBUMIN [1]: 4.12 G/DL
ALKALINE PHOSPHATASE [1]: 249.5 u/L
ASPARTATE AMINOTRANSFERASE [1]: 61.17 u/L
BLOOD UREA NITROGEN [1]: 11 mg/dL
CARBON DIOXIDE [1]: 31.17 mmol/L
CHLORIDE [1]: 98.33 MEQ/L
CHOLESTEROL [1]: 81.67 mg/dL
CREATINE PHOSPHOKINASE [1]: 185.5 u/L
CREATININE [1]: 0.18 mg/dL
GLUCOSE [1]: 153.5 mg/dL
LACTATE DEHYDROGENASE [1]: 58.67 u/L
LIPASE [1]: 9.83 u/L
PHOSPHORUS [1]: 10.27 mg/dL
POTASSIUM [1]: 5.57 MEQ/L
SODIUM [1]: 143.25 MEQ/L
TOTAL BILIRUBIN [1]: 0.13 mg/dL
TOTAL PROTEIN [1]: 5.97 G/DL
URIC ACID [1]: 0.45 mg/dL
ABSOLUTE EOSINOPHIL [2]: 50 CELLS/uL
ABSOLUTE LYMPHOCYTE [2]: 13297 CELLS/uL
ABSOLUTE MONOCYTE [2]: 256.33 CELLS/uL
ABSOLUTE SEGMENTED NEUTROPHIL [2]: 2130 CELLS/uL
BASOPHIL [2]: 0%
EOSINOPHIL [2]: 0.33%
ERYTHROCYTE COUNT [2]: 5.91 x10E6/uL
HEMATOCRIT [2]: 39.97%
HEMOGLOBIN [2]: 14.47 G/DL
LEUKOCYTE COUNT [2]: 15.73 x10E3/uL
LYMPHOCYTE [2]: 84.67%
MEAN CORPUSCULAR HEMOGLOBIN [2]: 24.55 pg
MEAN CORPUSCULAR HEMOGLOBIN CONCENTRATION [2]: 36.2 G/DL
MEAN CORPUSCULAR VOLUME [2]: 67.78 fL
MONOCYTE [2]: 1.67%
NEUTROPHIL [2]: 13.33%
NUCLEATED RED BLOOD CELLS [2]: 0 /100WBC
PLATELET COUNT [2]: 1100.5 x10E3/uL
ALANINE AMINOTRANSFERASE [2]: 96.5 u/L
ALBUMIN [2]: 4.35 G/DL
ALKALINE PHOSPHATASE [2]: 225.33 u/L
ASPARTATE AMINOTRANSFERASE [2]: 192.17 u/L
BLOOD UREA NITROGEN [2]: 19.33 mg/dL
CARBON DIOXIDE [2]: 17.5 mmol/L
CHLORIDE [2]: 99.67 MEQ/L
CHOLESTEROL [2]: 64.33 mg/dL
CREATINE PHOSPHOKINASE [2]: 1132 u/L
CREATININE [2]: 0.23 mg/dL
GLUCOSE [2]: 205 mg/dL
LACTATE DEHYDROGENASE [2]: 746.17 u/L
LIPASE [2]: 8.17 u/L
PHOSPHORUS [2]: 16.53 mg/dL
POTASSIUM [2]: 6.95 MEQ/L
SODIUM [2]: 140.37 MEQ/L
TOTAL BILIRUBIN [2]: 0.2 mg/dL
TOTAL PROTEIN [2]: 5.83 G/DL
URIC ACID [2]: 4.12 mg/dL
ABSOLUTE EOSINOPHIL [3]: 0 CELLS/uL
ABSOLUTE LYMPHOCYTE [3]: 12176.83 CELLS/uL
ABSOLUTE MONOCYTE [3]: 320 CELLS/uL
ABSOLUTE SEGMENTED NEUTROPHIL [3]: 353.17 CELLS/uL
BASOPHIL [3]: 0%
EOSINOPHIL [3]: 0%
ERYTHROCYTE COUNT [3]: 5.64 x10E6/uL
HEMATOCRIT [3]: 36.4%
HEMOGLOBIN [3]: 14.38 G/DL
LEUKOCYTE COUNT [3]: 12.85 x10E3/uL
LYMPHOCYTE [3]: 94.83%
MEAN CORPUSCULAR HEMOGLOBIN [3]: 25.55 pg
MEAN CORPUSCULAR HEMOGLOBIN CONCENTRATION [3]: 39.53 G/DL
MEAN CORPUSCULAR VOLUME [3]: 64.63 fL
MONOCYTE [3]: 2.33%
NEUTROPHIL [3]: 2.83%
NUCLEATED RED BLOOD CELLS [3]: 0.17 /100WBC
PLATELET COUNT [3]: 1165.33 x10E3/uL
ALANINE AMINOTRANSFERASE [3]: 12.67 u/L
ALBUMIN [3]: 3.88 G/DL
ALKALINE PHOSPHATASE [3]: 235.5 u/L
ASPARTATE AMINOTRANSFERASE [3]: 43.83 u/L
BLOOD UREA NITROGEN [3]: 14.83 mg/dL
CARBON DIOXIDE [3]: 30.67 mmol/L
CHLORIDE [3]: 99.5 MEQ/L
CHOLESTEROL [3]: 62.17 mg/dL
CREATINE PHOSPHOKINASE [3]: 219.17 u/L
CREATININE [3]: 0.2 mg/dL
GLUCOSE [3]: 139.5 mg/dL
LACTATE DEHYDROGENASE [3]: 82 u/L
LIPASE [3]: 9 u/L
PHOSPHORUS [3]: 10.38 mg/dL
POTASSIUM [3]: 5.78 MEQ/L
SODIUM [3]: 143.5 MEQ/L
TOTAL BILIRUBIN [3]: 0.12 mg/dL
TOTAL PROTEIN [3]: 5.75 G/DL
URIC ACID [3]: 0.75 mg/dL
